The results in this text go back to PubChem BioAssay (NCI).

Where “and” joins values, the source holds several entries; their conditions need not be identical. Identical values can stand only once.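 These data come from cells grown in 96-well plates and exposed to compound for 48 hours at five concentrations. GI50 marks 50% less growth. TGI denotes the concentration required for complete inhibition of growth.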

The test relates to MDA-MB-468 breast. Put plainly: NCI anticancer screen, dose series, 48 h.
`c1ccc(Nn2c(CCCCCCCCc3nnc(COc4ccccc4)n3Nc3ccccc3)nnc2COc2ccccc2)cc1`: the GI50 was 12800 nM and 61600 nM; the TGI was over 300000 nM.
`COc1cc2c(cc1OC)-c1ccc3cc4c(cc3c1N(CCN(C)C)C2)OCO4`: the GI50 was 210 nM and the TGI turned out to be 762 nM.
Regarding `O=C(O)c1ccc2c3c(ncnc13)-c1ccccc1C2=O`, the GI50 was over 81900 nM and the TGI was over 100000 nM.
Consider `c1cncc(-c2nc3ccccc3s2)c1`, for which the GI50 was over 100000 nM and the TGI is over 100000 nM.
`Oc1ccc2ccccc2c1C1NN=C(c2ccccc2)S1` (stereo unspecified): the GI50 is 536 nM and the TGI worked out at 3940 nM.
Regarding `Nc1nc2ccc3[nH]ncc3c2c2c1CCCC2`, the GI50 is 1460 nM and the TGI stood at 2920 nM.
For the compound `COc1ccc(-c2cn(-c3cccc(C(=O)/C=C/c4ccc(O)c(OC)c4)c3)c(=O)[nH]2)cc1`, the GI50 was 5460 nM and the TGI was over 100000 nM.
On to `CCN(CC)CCCC(C)Nc1c2ccc(Cl)cc2nc2cc(OC)c(OC)cc12` (stereo unspecified), for which the GI50 is 1300 nM and the TGI is 2830 nM.
For the compound `CN1CCC(C(=O)Nc2n[nH]c3nc(-c4ccc(O)cc4)c(Br)cc23)CC1`, the GI50 was 486 nM and 779 nM; the TGI was 1410 nM and 2830 nM.
For `COc1ccc(/C(=N\NC(N)=S)c2ccc(Cl)cc2)cc1OC`, the GI50 was 1910 nM and the TGI was 7990 nM.
As for `COc1ccc(C2=Nc3c/c(=C\c4c(O)[nH]c5ccc(Cl)cc45)ccc3=N2)cc1`, the GI50 was 1480 nM and the TGI came to 3070 nM.
For `O=C1NC(=O)C(c2ccc(Cl)cc2)=C1Nc1ccc(Cl)c(C(=O)O)c1` the same measures were over 25000 nM and over 25000 nM.
`COc1ccc(-c2nn(-c3cccc(Cl)c3)cc2-c2c(C#N)c(=O)n3[nH]c(-c4ccc(C)cc4)nc3c2C#N)cc1`: the GI50 is 1050 nM and the TGI came out at 2880 nM.
For `CN[C@@H]1C[C@H]2O[C@@](C)([C@@H]1OC)n1c3ccccc3c3c4c(c5c6ccccc6n2c5c31)C(=O)N[C@H]4O`, the GI50 was 17.6 nM and the TGI came to 105 nM.
Regarding `COc1cc(C2c3cc4c(cc3OC3(OC)COC(=O)C23)OCO4)cc(OC)c1OC` (stereo unspecified), the GI50 was 616 nM and the TGI turned out to be 88600 nM.
Turning to `COc1ccc([I+]c2ccccc2)cc1`, the GI50 was 253 nM and the TGI is over 36600 nM.
As for `C[n+]1c2ccccc2c(Nc2ccc(NS(=O)(=O)CCCCN=C(N)N)cc2)c2ccc(N)cc21`, the GI50 is 989 nM and the TGI is 26100 nM.
With `COc1ccc2c3c(c4ccccc4cc13)C(=O)N(CCN(C)CCN)C2=O`, the GI50 was 289 nM and the TGI is 1160 nM.
On to `Cc1cc(Nc2ccc(F)cc2)nc(N2CCN(c3ccnc4cc(Cl)ccc34)CC2)n1`, for which the GI50 was 2720 nM and the TGI was over 100000 nM.
As to `CCCC(=O)NC(c1cccnc1)c1cc(C(C)(C)C)c2cccnc2c1O` (stereo unspecified), the GI50 is 2310 nM and the TGI was found to be 8980 nM.
Consider `Cc1ccc(C(=O)/C(=C\c2ccc([N+](=O)[O-])cc2)S(=O)Cc2ccc(F)cc2)cc1` (stereo unspecified), for which the GI50 is 1850 nM and the TGI was 3690 nM.
Take `O=C(NCCN1CCC(O)CC1)c1cc2c(o1)C(=O)c1ccccc1C2=O`: the GI50 is 202 nM and the TGI was 559 nM.
For the compound `CN1C(=O)C(=Cc2cn(Cc3ccccc3)c3ccccc23)C(=O)N(C)C1=O`, the GI50 was 63.9 nM and the TGI worked out at 158 nM.
Take `COc1cc(F)cc([C@@H](CO)NC(=O)[C@@H](C)N2Cc3ccc(-c4nc(NC5CCOCC5)ncc4Cl)cc3C2=O)c1`: the GI50 was 1820 nM and the TGI came to 17000 nM.
For `N#Cc1ccc(C2C3=C(CCCC3=O)OC3=C2C(=O)c2ccccc2C3=O)cc1` (stereo unspecified), the GI50 is 309 nM and the TGI is 867 nM.
For `Cc1cccc(Cl)c1NC(=O)c1cnc(Nc2cc(N3CCOCC3)cc(N3CCOCC3)c2)s1` the same measures were 326 nM and 2770 nM.
For `Cc1cc([N+](=O)[O-])ccc1NS(=O)(=O)c1cc(Cl)ccc1Cl`, the GI50 was 1660 nM and the TGI was 7610 nM.
For `COc1ccc(SC2c3ccc(C)cc3Oc3nc(N)c(C#N)c(N)c32)cc1` (stereo unspecified) the same measures were 1790 nM and 3600 nM.
`O=[N+]([O-])c1ccc2nc(/C=C(\O)c3ccccc3)c(/C=C(\O)c3ccccc3)nc2c1`: the GI50 was 4000 nM and the TGI was 61700 nM.
Consider `CCCCOC(=O)c1ccc(NC(=O)CCl)cc1`, for which the GI50 is 1780 nM and the TGI was found to be 4080 nM.
For `Cn1cc(-c2nc(-c3c[nH]c4ccncc34)cs2)c2cc(F)ccc21` the same measures were 1400 nM and 2890 nM.
On to `CC1(C)N=C(N)N=C(N)N1c1ccc(CCc2ccc(Cl)cc2S(=O)(=O)F)c(Cl)c1`, for which the GI50 was 3590 nM and the TGI was 24200 nM.
The matching figures for `O=C(O)c1ccc([S-])cc1.[Au+].c1ccc(CN2[CH-]N(Cc3ccccc3)C(c3ccccc3)=C2c2ccccc2)cc1`: 188 nM and 873 nM.
In the case of `CCO/C=N/C1=C(C#N)C(c2ccc(Cl)cc2)c2sc3c(C)cccc3c2O1` (stereo unspecified), the GI50 is 386 nM and the TGI was determined as 14500 nM.
On to `CCOc1ccc2nc(-c3cccc(OCC(=O)NC(C)C)c3)nc(Nc3ccc(-c4cn[nH]c4)cc3)c2c1`, for which the GI50 was 2310 nM and the TGI came to 14900 nM.
As to `CCCOC(=O)N[C@H]1CCc2cc(OC)c(OC)c(OC)c2-c2ccc(SC)c(=O)cc21`, the GI50 was under 10 nM and the TGI stood at 13500 nM.
For `COc1ccc2c(c1)CCc1[nH]nc(-c3cc(OC)c(OC)c(OC)c3)c1-2` the same measures were under 10 nM and under 10 nM.
Regarding `CC(C)(C)NCCC(O)c1cc2c(Cl)cc(Cl)cc2c2cc(C(F)(F)F)ccc12` (stereo unspecified), the GI50 is 1590 nM and the TGI came to 3060 nM.
For `Cn1c(/C=C(\C#N)c2cccc(C(F)(F)F)c2)nc2c(N3CCOCC3)nc(Cl)nc21` the same measures were 432 nM and 1630 nM.
Regarding `CSc1n(Cc2ccc3ccccc3c2)c(C)c[n+]1Cc1ccc2ccccc2c1`, the GI50 is 211 nM and the TGI was 672 nM.
Consider `COc1cc(-c2csc(NC(=O)Nc3cc(C(F)(F)F)cc(C(F)(F)F)c3)n2)cc(OC)c1OC`, for which the GI50 is 1330 nM and the TGI was 9280 nM.
As for `O=CC(Br)C(Br)c1ccccc1` (stereo unspecified), the GI50 is 1480 nM and the TGI is 3650 nM.
With `COc1ccc2c(c1)c1nc3cc(C)c(C)cc3nc1n2CCN(C)C`, the GI50 is 761 nM and the TGI was 2450 nM.
